Laboratory results taken from ChEMBL document CHEMBL3885861, “Open TG-GATES”.

Species: Rattus norvegicus
Experiment: Open TG-GATES - Regimen: Daily Repeat
Assay type: toxicity, organism-based, Sprague-Dawley
Set-up: regimen Daily Repeat, gender Male, age 6 weeks
Settings: in vivo, po, 0 mg/kg, route gavage, dose level Control; for APTT / Bas / Eos / Fbg / Hb / Ht / Lym / MCH / MCHC / MCV / Mono / Neu / PT / Plat / RBC / Ret / WBC: tissue Blood; for KIDNEY_L / KIDNEY_R / KIDNEY_TOTAL: tissue Kidney; for LIVER: tissue Liver; for A/G / ALP / ALT / AST / BUN / CRE / Ca / Cl / DBIL / GLC / IP / K / LDH / Na / PL / RALB / TBIL / TC / TG / TP / gamma-GTP: tissue Plasma

CC1=C(CC(=O)O)c2cc(F)ccc2/C1=C\c1ccc([S+](C)[O-])cc1 (configuration not stated)
TERMINAL_BW (72 h, time 3 day): 233.7 g | APTT (72 h, time 3 day): 16 s | Bas (72 h, time 3 day): 0% | Eos (72 h, time 3 day): 1% | Fbg (72 h, time 3 day): 298.2 mg/dL | Hb (72 h, time 3 day): 14.3 g/dL | Ht (72 h, time 3 day): 42.9% | Lym (72 h, time 3 day): 79% | MCH (72 h, time 3 day): 21.6 pg | MCHC (72 h, time 3 day): 33.3% | MCV (72 h, time 3 day): 64.9 fL | Mono (72 h, time 3 day): 2.2% | Neu (72 h, time 3 day): 17% | PT (72 h, time 3 day): 13.8 s | Plat (72 h, time 3 day): 126.4 x10_4/uL | RBC (72 h, time 3 day): 662.2 x10_4/ul | Ret (72 h, time 3 day): 7.1% | WBC (72 h, time 3 day): 84.9 x10_2/uL | KIDNEY_L (72 h, time 3 day): 1 g | KIDNEY_R (72 h, time 3 day): 1 g | KIDNEY_TOTAL (72 h, time 3 day): 1.9 g | LIVER (72 h, time 3 day): 11.1 g | A/G (72 h, time 3 day): 0.9 | ALP (72 h, time 3 day): 1760.4 IU/L | ALT (72 h, time 3 day): 44 IU/L | AST (72 h, time 3 day): 69.4 IU/L | BUN (72 h, time 3 day): 15 mg/dL | CRE (72 h, time 3 day): 0.2 mg/dL | Ca (72 h, time 3 day): 11.2 mg/dL | Cl (72 h, time 3 day): 105.8 meq/L | DBIL (72 h, time 3 day): 0.014 mg/dL | GLC (72 h, time 3 day): 180.6 mg/dL | IP (72 h, time 3 day): 7.5 mg/dL | K (72 h, time 3 day): 4.2 meq/L | LDH (72 h, time 3 day): 73.8 IU/L | Na (72 h, time 3 day): 142 meq/L | PL (72 h, time 3 day): 160.8 mg/dL | RALB (72 h, time 3 day): 2.7 g/dL | TBIL (72 h, time 3 day): 0.02 mg/dL | TC (72 h, time 3 day): 80.4 mg/dL | TG (72 h, time 3 day): 111.6 mg/dL | TP (72 h, time 3 day): 5.6 g/dL | gamma-GTP (72 h, time 3 day): 1 IU/L | TERMINAL_BW ([…], time 7 day): 270.8 g | TERMINAL_BW ([…], time 14 day): 336.8 g | TERMINAL_BW ([…], time 28 day): 383.5 g | APTT ([…], time 7 day): 16.4 s | Bas ([…], time 7 day): 0.2% | Eos ([…], time 7 day): 1% | Fbg ([…], time 7 day): 306.6 mg/dL | Hb ([…], time 7 day): 14.4 g/dL | Ht ([…], time 7 day): 42.3% | Lym ([…], time 7 day): 81.2% | MCH ([…], time 7 day): 21.3 pg | MCHC ([…], time 7 day): 34.1% | MCV ([…], time 7 day): 62.5 fL | Mono ([…], time 7 day): 2.6% | Neu ([…], time 7 day): 14.4% | PT ([…], time 7 day): 13.6 s | Plat ([…], time 7 day): 131.7 x10_4/uL | RBC ([…], time 7 day): 678.6 x10_4/ul | Ret ([…], time 7 day): 5.9% | WBC ([…], time 7 day): 91.7 x10_2/uL | APTT ([…], time 14 day): 17.6 s | Bas ([…], time 14 day): 0.2% | Eos ([…], time 14 day): 1% | Fbg ([…], time 14 day): 299.8 mg/dL | Hb ([…], time 14 day): 15.1 g/dL | Ht ([…], time 14 day): 44.6% | Lym ([…], time 14 day): 76.8% | MCH ([…], time 14 day): 20.9 pg | MCHC ([…], time 14 day): 33.9% | MCV ([…], time 14 day): 61.5 fL | Mono ([…], time 14 day): 2.4% | Neu ([…], time 14 day): 19.6% | PT ([…], time 14 day): 14.2 s | Plat ([…], time 14 day): 124.3 x10_4/uL | RBC ([…], time 14 day): 725.2 x10_4/ul | Ret ([…], time 14 day): 4.3% | WBC ([…], time 14 day): 92.8 x10_2/uL | APTT ([…], time 28 day): 17.9 s | Bas ([…], time 28 day): 0.2% | Eos ([…], time 28 day): 1.8% | Fbg ([…], time 28 day): 282.6 mg/dL | Hb ([…], time 28 day): 15.2 g/dL | Ht ([…], time 28 day): 46.1% | Lym ([…], time 28 day): 79.2% | MCH ([…], time 28 day): 18.9 pg | MCHC ([…], time 28 day): 32.9% | MCV ([…], time 28 day): 57.4 fL | Mono ([…], time 28 day): 1.8% | Neu ([…], time 28 day): 16.2% | PT ([…], time 28 day): 13.2 s | Plat ([…], time 28 day): 109 x10_4/uL | RBC ([…], time 28 day): 802.4 x10_4/ul | Ret ([…], time 28 day): 2.4% | WBC ([…], time 28 day): 108.9 x10_2/uL | KIDNEY_L ([…], time 7 day): 1.1 g | KIDNEY_R ([…], time 7 day): 1.1 g | KIDNEY_TOTAL ([…], time 7 day): 2.1 g | KIDNEY_L ([…], time 14 day): 1.3 g | KIDNEY_R ([…], time 14 day): 1.3 g | KIDNEY_TOTAL ([…], time 14 day): 2.5 g | KIDNEY_L ([…], time 28 day): 1.3 g | KIDNEY_R ([…], time 28 day): 1.3 g | KIDNEY_TOTAL ([…], time 28 day): 2.6 g | LIVER ([…], time 7 day): 12.7 g | LIVER ([…], time 14 day): 14.8 g | LIVER ([…], time 28 day): 14.9 g | A/G ([…], time 7 day): 0.9 | ALP ([…], time 7 day): 1662.6 IU/L | ALT ([…], time 7 day): 45.2 IU/L | AST ([…], time 7 day): 69.8 IU/L | BUN ([…], time 7 day): 16.8 mg/dL | CRE ([…], time 7 day): 0.2 mg/dL | Ca ([…], time 7 day): 10.9 mg/dL | Cl ([…], time 7 day): 104.4 meq/L | DBIL ([…], time 7 day): 0.012 mg/dL | GLC ([…], time 7 day): 183 mg/dL | IP ([…], time 7 day): 7.2 mg/dL | K ([…], time 7 day): 4.2 meq/L | LDH ([…], time 7 day): 108.4 IU/L | Na ([…], time 7 day): 140.4 meq/L | PL ([…], time 7 day): 177 mg/dL | RALB ([…], time 7 day): 2.7 g/dL | TBIL ([…], time 7 day): 0.018 mg/dL | TC ([…], time 7 day): 94.2 mg/dL | TG ([…], time 7 day): 120.4 mg/dL | TP ([…], time 7 day): 5.7 g/dL | gamma-GTP ([…], time 7 day): 0.8 IU/L | A/G ([…], time 14 day): 0.9 | ALP ([…], time 14 day): 1218 IU/L | ALT ([…], time 14 day): 38.6 IU/L | AST ([…], time 14 day): 66.8 IU/L | BUN ([…], time 14 day): 17.8 mg/dL | CRE ([…], time 14 day): 0.2 mg/dL | Ca ([…], time 14 day): 11.1 mg/dL | Cl ([…], time 14 day): 105.4 meq/L | DBIL ([…], time 14 day): 0.012 mg/dL | GLC ([…], time 14 day): 180 mg/dL | IP ([…], time 14 day): 6 mg/dL | K ([…], time 14 day): 3.8 meq/L | LDH ([…], time 14 day): 65.6 IU/L | Na ([…], time 14 day): 143.6 meq/L | PL ([…], time 14 day): 163.4 mg/dL | RALB ([…], time 14 day): 2.8 g/dL | TBIL ([…], time 14 day): 0.044 mg/dL | TC ([…], time 14 day): 73.2 mg/dL | TG ([…], time 14 day): 175.4 mg/dL | TP ([…], time 14 day): 5.9 g/dL | gamma-GTP ([…], time 14 day): 1 IU/L | A/G ([…], time 28 day): 0.8 | ALP ([…], time 28 day): 1152 IU/L | ALT ([…], time 28 day): 35.8 IU/L | AST ([…], time 28 day): 63.6 IU/L | BUN ([…], time 28 day): 16.8 mg/dL | CRE ([…], time 28 day): 0.3 mg/dL | Ca ([…], time 28 day): 10.3 mg/dL | Cl ([…], time 28 day): 105 meq/L | DBIL ([…], time 28 day): 0.012 mg/dL | GLC ([…], time 28 day): 192.2 mg/dL | IP ([…], time 28 day): 6.5 mg/dL | K ([…], time 28 day): 3.6 meq/L | LDH ([…], time 28 day): 82.8 IU/L | Na ([…], time 28 day): 142 meq/L | PL ([…], time 28 day): 128.8 mg/dL | RALB ([…], time 28 day): 2.7 g/dL | TBIL ([…], time 28 day): 0.074 mg/dL | TC ([…], time 28 day): 57.4 mg/dL | TG ([…], time 28 day): 125.6 mg/dL | TP ([…], time 28 day): 6 g/dL | gamma-GTP ([…], time 28 day): 1 IU/L
